Laboratory results from BindingDB's records for PubMed 39642691 (University of California San Francisco).

Target: T1, Pendrin (Homo sapiens, UniProt O43511)
T1 sequence (O43511 whole entry): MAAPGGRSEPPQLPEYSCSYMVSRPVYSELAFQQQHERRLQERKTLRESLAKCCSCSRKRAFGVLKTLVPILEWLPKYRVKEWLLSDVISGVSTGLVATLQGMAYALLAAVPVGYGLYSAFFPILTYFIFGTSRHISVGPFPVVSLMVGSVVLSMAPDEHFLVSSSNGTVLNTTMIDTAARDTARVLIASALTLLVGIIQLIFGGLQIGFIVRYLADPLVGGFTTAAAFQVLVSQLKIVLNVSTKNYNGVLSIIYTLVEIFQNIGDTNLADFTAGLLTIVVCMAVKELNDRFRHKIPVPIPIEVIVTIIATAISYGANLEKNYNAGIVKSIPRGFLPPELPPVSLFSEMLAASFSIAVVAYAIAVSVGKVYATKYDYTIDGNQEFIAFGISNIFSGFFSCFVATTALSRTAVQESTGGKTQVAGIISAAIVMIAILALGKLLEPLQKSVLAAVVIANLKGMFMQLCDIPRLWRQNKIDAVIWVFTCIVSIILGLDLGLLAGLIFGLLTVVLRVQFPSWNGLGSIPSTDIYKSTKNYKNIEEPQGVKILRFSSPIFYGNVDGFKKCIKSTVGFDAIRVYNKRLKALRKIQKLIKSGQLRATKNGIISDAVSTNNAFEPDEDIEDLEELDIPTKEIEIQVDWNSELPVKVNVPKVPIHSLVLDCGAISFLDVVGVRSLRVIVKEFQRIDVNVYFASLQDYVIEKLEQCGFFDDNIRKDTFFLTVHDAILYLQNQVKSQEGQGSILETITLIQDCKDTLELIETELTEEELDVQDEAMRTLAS
Test: Inhibition of Pendrin (unknown origin) transfected in rat FRT cells assessed as reduction in Cl-/I- ions exchange by YFP fluorescence quenching assay

Cc1oc2ccc(OCc3ccccc3Cl)cc2c1C(=O)O
IC50: 650 nM
